In US20250171461A1, “STIMULATOR OF INTERFERON GENES (STING) MODULATORS, AND COMPOSITIONS AND METHODS THEREOF” (Geode Therapeutics Inc., priority 2022, published 2025):

Target: T1, human HAQ STING isoform (hSTING HAQ) (Homo sapiens, UniProt Q86WV6, G230A/H232R/R293Q/R71H)
T1 construct: THP1 cells express the naturally occurring human HAQ STING isoform (hSTING HAQ); host or cells: THP1
Test: IFN-β mRNA level in THP1 cells (qPCR, STING agonist cellular activity)
Assay type: cell-based
Conditions: compound at 3.6 μM, 2 hrs, IFNβ expression normalized against GAPDH by the 2^-ΔΔCT method, DMSO = 1.0
Procedure: Cellular activity of STING agonists was determined by mRNA levels of IFN-β in THP1 (Otwo Biotech HTX1621) cell line. THP1 cells express the naturally occurring human HAQ STING isoform (hSTING HAQ), which responses to the activation of STING agonists.
THP1 cells were seeded into Falcon 12-well cell Culture Plate (Corning #353043) at 9×10^5 cells per well, in 1 ml complete culture medium (RPMI-1640, GIBCO #C1187500BT) containing 10% heat inactivated FBS (GIBCO #10099141C), 1% Pen-Strep (HyClone SV30010) and incubated at 37° ΔC, 5% CO2 overnight. On day 2, compound (final concentration at 3.6 μM) or DMSO (0.1%, Sigma Aldrich #8418) was added to THP1 cells and further incubated for 2 hrs min at 37° ΔC, 5% CO2. Cells were then collected for RNA extraction.
Total RNA was extracted with TRIzol reagent (Invitrogen #15596026) and […] was used to synthesize first-strand cDNA with Maxima First Strand cDNA Synthesis Kit (TAKARA #RR036A). Quantitative PCR was performed with Maxima SYBR Green qPCR Master Mix (ABI #4367659, USA). The primer sequences used were as follows: GAPDH (5′-[…]-3′, 5′-[…]-3′). INFP3 (5′-[…]-3′,5′-[…]-3′) Real-time PCR was performed on QuantStudio™ 5 Real-Time PCR System (Thermo Fisher). Relative expression levels of IFNβ gene were normalized against the level of GAPDH expression by the 2^−ΔΔCT method. Each PCR reaction was performed in triplicates.

T1 sequence (Q86WV6 whole entry R71H/G230A/H232R/R293Q, canonical isoform): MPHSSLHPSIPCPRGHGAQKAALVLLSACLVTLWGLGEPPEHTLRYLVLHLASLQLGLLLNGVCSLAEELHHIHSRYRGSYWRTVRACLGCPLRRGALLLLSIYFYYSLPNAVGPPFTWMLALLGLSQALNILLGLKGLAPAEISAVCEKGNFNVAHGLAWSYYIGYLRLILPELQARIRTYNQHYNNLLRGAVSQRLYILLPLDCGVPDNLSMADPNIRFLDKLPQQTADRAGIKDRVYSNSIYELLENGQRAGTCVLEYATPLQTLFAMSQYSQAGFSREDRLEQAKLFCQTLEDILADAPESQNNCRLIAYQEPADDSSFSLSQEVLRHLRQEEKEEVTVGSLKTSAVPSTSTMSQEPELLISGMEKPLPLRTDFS

| Compound | Relative mRNA INFβ/GAPDH THP 1 |
| --- | --- |
| COc1cc(CN(Cc2cn3c4c(c(F)c(F)cc4c2=O)OCC3C)[C@H]2CCCN(c3ccc(N4CCCC4=O)nc3)C2)ccn1 (stereo partly drawn) [Compound 18, 9,10-difluoro-6-((((2-methoxypyridin-4-yl)methyl)((S)-1-(6-(2-oxopyrrolidin-1-yl)pyridin-3-yl)piperidin-3-yl)amino)methyl)-3-methyl-2H-[1,4]oxazino[2,3,4-ij]quinolin-7(3H)-one] | 4.8 |
| COc1cc(CN(Cc2cn3c4c(c(N5CCN(C)C(C)C5)c(F)cc4c2=O)OCC3C)[C@H]2CCCN(c3ccc(N)nc3)C2)ccn1 (stereo partly drawn) [Compound 32, 6-((((S)-1-(6-aminopyridin-3-yl)piperidin-3-yl)((2-methoxypyridin-4-yl)methyl)amino)methyl)-10-(3,4-dimethylpiperazin-1-yl)-9-fluoro-3-methyl-2H-[1,4]oxazino[2,3,4-ij]quinolin-7(3H)-one] | 814.9 |
| Cc1ccc(N2CCC[C@H](N(Cc3ccnc(C)c3)Cc3cn4c5c(c(F)c(F)cc5c3=O)OCC4C)C2)cn1 (stereo partly drawn) [Compound 9, 9,10-difluoro-3-methyl-6-((((S)-1-(6-methylpyridin-3-yl)piperidin-3-yl)((2-methylpyridin-4-yl)methyl)amino)methyl)-2H-[1,4]oxazino[2,3,4-ij]quinolin-7(3H)-one] | 332.6 |
| O=c1c(CN(Cc2ccncn2)[C@H]2CCCN(c3cnccn3)C2)cn2c3c(c(F)c(F)cc13)OCC2 [Compound 85, (S)-9,10-difluoro-6-(((1-(pyrazin-2-yl)piperidin-3-yl)(pyrimidin-4-ylmethyl)amino)methyl)-2,3-dihydro-7H-[1,4]oxazino[2,3,4-ij]quinolin-7-one] | 0.9 |
| COc1cc(CN(Cc2cn3c4c(c(F)c(F)cc4c2=O)OCC3C)[C@H]2CCCN(c3ccc(N(C)C4CC4)nc3)C2)ccn1 (stereo partly drawn) [Compound 21, 11-[[[(3S)-1-[6-[cyclopropyl(methyl)amino]-3-pyridyl]-3-piperidyl]-[(2-methoxy-4-pyridyl)methyl]amino]methyl]-6,7-difluoro-2-methyl-4-oxa-1-azatricyclo[7.3.1.0^5,13]trideca-5(13),6,8,11-tetraen-10-one] | 114.6 |
| CCOc1cc(CN(Cc2cn3c4c(c(F)c(F)cc4c2=O)OCC3)[C@H]2CCCN(c3cnccn3)C2)ccn1 [Compound 90, (S)-6-((((2-ethoxypyridin-4-yl)methyl)(1-(pyrazin-2-yl)piperidin-3-yl)amino)methyl)-9,10-difluoro-2,3-dihydro-7H-[1,4]oxazino[2,3,4-ij]quinolin-7-one] | 1.7 |
| Cc1ccc(N2CCC[C@H](N(Cc3ccnc(N)c3)Cc3cn4c5c(c(F)c(F)cc5c3=O)OCC4C)C2)cn1 (stereo partly drawn) [Compound 11, 6-((((2-aminopyridin-4-yl)methyl)((S)-1-(6-methylpyridin-3-yl)piperidin-3-yl)amino)methyl)-9,10-difluoro-3-methyl-2H-[1,4]oxazino[2,3,4-ij]quinolin-7(3H)-one] | 65.6 |
| COc1cc(CN(Cc2cn3c4c(c(F)c(F)cc4c2=O)OC(C)C3)[C@H]2CCCN(c3ccc(N)nc3)C2)ccn1 (stereo partly drawn) [Compound 51, 6-((((S)-1-(6-aminopyridin-3-yl)piperidin-3-yl)((2-methoxypyridin-4-yl)methyl)amino)methyl)-9,10-difluoro-2-methyl-2H-[1,4]oxazino[2,3,4-ij]quinolin-7(3H)-one] | 7257.8 |
| Cc1cc(CN(Cc2cn3c4c(c(F)c(F)cc4c2=O)OCC3C)[C@H]2CCCN(c3ccc(N)nc3)C2)ccn1 (stereo partly drawn) [Compound 3, 6-((((S)-1-(6-aminopyridin-3-yl)piperidin-3-yl)((2-methylpyridin-4-yl)methyl)amino)methyl)-9,10-difluoro-3-methyl-2H-[1,4]oxazino[2,3,4-ij]quinolin-7(3H)-one] | 1356.3 |
| Cc1cc(CN(Cc2cn3c4c(c(F)c(F)cc4c2=O)OCC3C)[C@H]2CCCN(c3cccnc3)C2)ccn1 (stereo partly drawn) [Compound 10, 9,10-difluoro-3-methyl-6-((((2-methylpyridin-4-yl)methyl)((S)-1-(pyridin-3-yl)piperidin-3-yl)amino)methyl)-2H-[1,4]oxazino[2,3,4-ij]quinolin-7(3H)-one] | 336.8 |
| COc1cc(CN(Cc2cn3c4c(c(F)c(F)cc4c2=O)OC[C@@H]3C)[C@H]2CCCN(c3ccc(N)nc3)C2)ccn1 [Compound 6, (S)-6-((((S)-1-(6-aminopyridin-3-yl)piperidin-3-yl)((2-methoxypyridin-4-yl)methyl)amino)methyl)-9,10-difluoro-3-methyl-2H-[1,4]oxazino[2,3,4-ij]quinolin-7(3H)-one] | 1595.2 |
| Cc1cc(CN(Cc2cn3c4c(c(F)c(F)cc4c2=O)OCC3)[C@H]2CCCN(c3cccnc3)C2)ccn1 [Compound 81, (S)-9,10-difluoro-6-((((2-methylpyridin-4-yl)methyl)(1-(pyridin-3-yl)piperidin-3-yl)amino)methyl)-2,3-dihydro-7H-[1,4]oxazino[2,3,4-ij]quinolin-7-one] | 5719.5 |
| CC1COc2c(F)c(F)cc3c(=O)c(CN(Cc4ccncc4)[C@H]4CCCN(c5ccc(N)nc5)C4)cn1c23 (stereo partly drawn) [Compound 2, 6-((((S)-1-(6-aminopyridin-3-yl)piperidin-3-yl)(pyridin-4-ylmethyl)amino)methyl)-9,10-difluoro-3-methyl-2H-[1,4]oxazino[2,3,4-ij]quinolin-7(3H)-one] | 1261.9 |
| COC(=O)c1cc(CN(Cc2cn3c4c(c(F)c(F)cc4c2=O)OCC3)[C@H]2CCCN(c3cnccn3)C2)ccn1 [Compound 88, methyl (S)-4-((((9,10-difluoro-7-oxo-2,3-dihydro-7H-[1,4]oxazino[2,3,4-ij]quinolin-6-yl)methyl)(1-(pyrazin-2-yl)piperidin-3-yl)amino)methyl)picolinate] | 0.8 |
| COc1cc(CN(Cc2cn3c4c(c(N5CCc6ccccc6C5)c(F)cc4c2=O)OCC3C)[C@H]2CCCN(c3ccc(N)nc3)C2)ccn1 (stereo partly drawn) [Compound 33, 6-((((S)-1-(6-aminopyridin-3-yl)piperidin-3-yl)((2-methoxypyridin-4-yl)methyl)amino)methyl)-10-(3,4-dihydroisoquinolin-2(1H)-yl)-9-fluoro-3-methyl-2H-[1,4]oxazino[2,3,4-ij]quinolin-7(3H)-one] | 849.2 |
| COc1cc(CN(Cc2cn3c4c(c(F)c(F)cc4c2=O)SCC3)[C@H]2CCCN(c3ccc(NCC4CC4)nc3)C2)ccn1 [Compound 98, (S)-6-(((1-(6-((cyclopropylmethyl)amino)pyridin-3-yl)piperidin-3-yl)((2-methoxypyridin-4-yl)methyl)amino)methyl)-9,10-difluoro-2,3-dihydro-7H-[1,4]thiazino[2,3,4-ij]quinolin-7-one] | 301.6 |
| COc1cc(CN(Cc2cn3c4c(c(N5CCN(Cc6oc(=O)oc6C)CC5)c(F)cc4c2=O)OCC3C)[C@H]2CCCN(c3ccc(N)nc3)C2)ccn1 (stereo partly drawn) [Compound 25, 6-((((S)-1-(6-aminopyridin-3-yl)piperidin-3-yl)((2-methoxypyridin-4-yl)methyl)amino)methyl)-9-fluoro-3-methyl-10-(4-((5-methyl-2-oxo-1,3-dioxol-4-yl)methyl)piperazin-1-yl)-2H-[1,4]oxazino[2,3,4-ij]quinolin-7(3H)-one] | 604.8 |
| COc1cc(CN(Cc2cn3c4c(c(N5CCCCC5)c(F)cc4c2=O)OCC3C)[C@H]2CCCN(c3ccc(N)nc3)C2)ccn1 (stereo partly drawn) [Compound 28, 6-((((S)-1-(6-aminopyridin-3-yl)piperidin-3-yl)((2-methoxypyridin-4-yl)methyl)amino)methyl)-9-fluoro-3-methyl-10-(piperidin-1-yl)-2H-[1,4]oxazino[2,3,4-ij]quinolin-7(3H)-one] | 1530.0 |
| COc1cc(CN(Cc2cn3c4c(c(N5CCC6(CC5)CC(O)CO6)c(F)cc4c2=O)OCC3C)[C@H]2CCCN(c3ccc(N)nc3)C2)ccn1 (stereo partly drawn) [Compound 44, 6-((((S)-1-(6-aminopyridin-3-yl)piperidin-3-yl)((2-methoxypyridin-4-yl)methyl)amino)methyl)-9-fluoro-10-(3-hydroxy-1-oxa-8-azaspiro[4.5]decan-8-yl)-3-methyl-2H-[1,4]oxazino[2,3,4-ij]quinolin-7(3H)-one] | 642.4 |
| COc1cc(CN(Cc2cn3c4c(c(N5CC6(CCN(C)CC6)C5)c(F)cc4c2=O)OCC3C)[C@H]2CCCN(c3ccc(N)nc3)C2)ccn1 (stereo partly drawn) [Compound 45, 6-((((S)-1-(6-aminopyridin-3-yl)piperidin-3-yl)((2-methoxypyridin-4-yl)methyl)amino)methyl)-9-fluoro-3-methyl-10-(7-methyl-2,7-diazaspiro[3.5]nonan-2-yl)-2H-[1,4]oxazino[2,3,4-ij]quinolin-7(3H)-one] | 595.1 |
